# In US8691946B2, “Methods and compositions for soft tissue repair” (Affinergy, LLC, priority 2009, dated 2014):
# Ends that are not written are not given here.
# Legend:
# [1] = test system: human ASCs (adipose-derived mesenchymal stem cells); assay: Biotinylated peptide binding by flow cytometry (Neutravidin-PE); settings: biotinylated peptide 25 μM, 30 min, 4° C.
# Text: (§1) The synthetic biotinylated cell binding peptide SEQ ID NO: 4 was examined for its ability to specifically bind MSCs compared to a number of other cells types including adipose-derived mesenchymal stem cells (ASCs), dermal fibroblasts, rodent MSCs, red blood cells, monocytes, lymphocytes and granulocytes. The cell binding peptide was biotinylated as described herein at Example 2. Cultured cells of each type were either purchased (ASCs and dermal fibroblasts) or isolated from rodent bone marrow (rodent MSCs) or human blood. Cells were first harvested and resuspended at 10^6/mL in PBS+2% fetal bovine serum (FBS). An aliquot of cells (50 μL) was incubated in 50 μL of peptide solution (25 μM in PBS+FBS) for 30 min at 4° C. Cells were then washed twice in PBS+FBS with 300×g centrifugation for 5 min between washes. Fluorescently-tagged neutravidin (Neutravidin-PE from INVITROGEN) was then added to the cells to label biotinylated peptide bound to cells. Neutravidin-PE was diluted 1:250 from stock and applied at 50 μL to cells. Cells were then washed in PBS+FBS, and acquired on a BD […]. Peptide reactivity was then measured as percent positivity relative to Neutravidin-PE staining without the addition of biotinylated peptide.
# human MSCs [2] = assay: as above; settings: biotinylated peptide 25 μM, 30 min, 4° C.
# Text: as §1
# dermal fibroblasts = assay: as above; parameters: species or system human; settings: biotinylated peptide 25 μM, 30 min, 4° C.
# Text: as §1
# [3] = test system: endothelial colony forming cells (ECFCs); assay: Biotinylated peptide binding to endothelial and other cells by flow cytometry; parameters: species or system human; settings: biotinylated peptide 10 μM
# Procedure: (§2) The synthetic biotinylated binding peptide SEQ ID NO: 4 was further examined for its ability to bind endothelial cells compared to other cell types (see FIG. 16). […] ECFCs are clonally expanded cells isolated from human umbilical cord blood, and are considered highly proliferative endothelial progenitor cells (EPCs) based on their clonogenic and proliferative potential. In another experiment, binding peptide SEQ ID NO: 4 was assayed for its ability to selectively isolate endothelial cells versus smooth muscle cells in the presence of whole blood. HUVECs or UASMCs were incubated in the presence of medium containing 20% whole blood and binding peptide SEQ ID NO: 4-conjugated magnetic beads (via biotin-SA) for 30 min. The solutions containing the bead-peptide-cell complexes were then passed through a […] LS column in a magnetic field. The column was washed, and the remaining peptide-bound cells were then released from the magnetic field and counted.
# peripheral blood cells = assay: as above; parameters: species or system human; settings: biotinylated peptide 10 μM
# Procedure: as §2
# [4] = test system: human umbilical vein endothelial cells (HUVECs); assay: as above; settings: biotinylated peptide 10 μM
# Procedure: as §2
# [5] = test system: umbilical artery smooth muscle cells (UASMCs); assay: as above; settings: biotinylated peptide 10 μM
# Procedure: as §2
# HUVECs or UASMCs = assay: Selective isolation of endothelial versus smooth muscle cells with peptide-conjugated magnetic beads in whole blood; type: cell-based, human; settings: medium containing 20% whole blood, 30 min
# Procedure: as §2
# human MSCs [6] = assay: Capture of cultured MSCs on peptide-coated streptavidin microbeads (LS columns); type: cell-based; settings: 160,000 cultured human MSCs
# Procedure: In this experiment the ability of the biotinylated cell binding peptide SEQ ID NO: 4 to capture human MSCs from a homogeneous cultured cell population was examined. The cell binding peptide SEQ ID NO: 4 was biotinylated as described herein at Example 2. The cell binding peptide SEQ ID NO: 4, and a non-binding control peptide, were added to separate 300 μl volumes of […] BIOTEC Streptavidin microbeads at a concentration of 20 μM. These beads are made from iron filings, coated with a dextran coating which is functionalized with streptavidin moieties. Peptide was incubated with beads for 45 min on ice. The 300 μl of peptide coated microbeads were added to pre-equilibrated LS columns outside of the magnetic field to evenly distribute the magnetic beads throughout the columns. Columns were then placed into a magnetic field, and excess peptide was washed away with buffer while retaining the peptide coated microbeads. Cultured and expanded human MSCs from bone marrow aspirate (160,000 cells; LONZA) were added to each LS column and allowed to pass through by gravity flow. Flowthrough was collected and cycled through the columns 5 times, after which the columns were washed with 5 ml buffer. […] The collected flowthrough with 5 ml wash and eluted cells were spun down, resuspended in a smaller volume, and counted by hemacytometer (see FIG. 17). […]
# [7] = test system: MSCs from bone marrow aspirate; assay: Capture of MSCs from bone marrow aspirate with biotinylated peptide and magnetic beads (CFU); type: cell-based
# Procedure: This experiment was performed to examine the ability of cell binding peptide SEQ ID NO: 4 to capture MSCs directly from bone marrow aspirate in comparison to two separate antibodies against the CD105 I antigen (CD105) and the MSCA-1 stem cell antigen (MSCA-1). This experiment employed biotinylated peptides with streptavidin-coated […] magnetic beads. The peptides were biotinylated as described herein at Example 2. […] For the antibody capture experiment, magnetic beads having covalently attached CD105 or MSCA-1 antibody were employed ([…]). Prior to incubation with the peptides and antibodies, bone marrow aspirate (BMA) was mixed with 5 volumes of 10 mM ammonium chloride for 1-2 min at room temperature to lyse red blood cells. The lysate was centrifuged for 5 min at 300×g and the supernatant discarded. The cell pellet was washed with wash buffer (PBS+0.5% bovine serum albumin+0.5 mM EDTA) and cells were resuspended in […] peptide at a concentration of 10^8 per mL. For peptide binding studies, the cell suspension was incubated with the biotinylated peptides for 30 min at 4° C. to allow for binding. After incubation, cells were spun down at 300×g for 5 min, and peptide solution was aspirated. Cells were then rinsed twice with wash buffer, with centrifugation between washes. […] Colony forming units (CFUs) were counted after 14 days in culture. […]
# HUVECs = assay: Endothelial cell phenotype and anti-thrombogenic protein secretion (flow cytometry, ELISA); type: cell-based, human; settings: HUVECs on collagen with 10 μM free peptide, 24 hours
# Procedure: Once immobilized on a vascular graft, endothelial cells must retain their characteristic properties of promoting endothelialization. Therefore, the phenotype, viability, and anti-thrombogenic protein expression profiles were evaluated for endothelial cells in the presence of collagen modified with the endothelial cell binding peptide SEQ ID NO: 4 (generated according to Example 7 using BS^3 reagent). […] Specifically, HUVECs were plated on SEQ ID NO: 4 peptide-modified collagen, collagen with 10 μM free SEQ ID NO: 4 peptide or collagen alone for 24 hours. Flow cytometry was performed using a BD […], and ELISAs were performed according to manufacturers instructions. (FIGS. 22A & 22B). Tissue-type Plasminogen Activator (t-PA) and 6-keto Prostaglandin F1a protein expression levels secreted in this assay are aligned with other reports on cultured HUVECS (Kimura and Yokoi-Hayashi, Biochim Biophys Acta, 1996, 1310:1-4; Merhi-Soussi et al., J Leukoc Biol, 2000, 68:881-9).
# [8] = test system: MSCs captured from bone marrow; assay: Adipocyte differentiation of captured MSCs (Oil Red O); type: cell-based; settings: 21 days adipocyte differentiation medium
# Procedure: After capture of MSCs using cell binding peptide SEQ ID NO: 4 with the […] magnetic system according to Example 6, the ability of the captured cells to differentiate into an adipocyte lineage was examined. The MSCs present in the […] column eluants (see Example 6) were cultured for 21 days in complete medium (DMEM, 10% FBS, 100 units/mL penicillin, 100 μg/mL streptomycin, and 2 mM glutamine) supplemented with 0.5 mM isobutyl methylxanthine, 1 μM dexamethasone, 10 μM insulin, 200 μM indomethacin, and 1% antibiotic/antimycotic. Following the 21 day incubation, the cells were fixed in 4% paraformaldehyde in PBS for 15 minutes, washed in 60% isopropanol for 5 minutes, and stained with Oil Red O (SIGMA) for 10 minutes to determine the extent of adipogenesis (see FIG. 26, panels A (undifferentiated MSCs) and panel B (adipocyte differentiated MSCs)). The image of the adipose differentiated cells (FIG. 26, panel B) contains a larger magnification inset where the lipid vacuoles are clearly visible.
# [9] = test system: MSCs captured from bone marrow; assay: Osteoblast differentiation of captured MSCs (Alizarin Red S); type: cell-based; settings: 14 days osteoblast differentiation medium
# Procedure: For osteogenic differentiation, the MSCs present in the […] column eluants (see Example 6) were cultured for 14 days in complete medium supplemented with 0.1 μM dexamethasone, 50 μM ascorbate-2-phosphate, 10 mM β-glycerophosphate, and 1% antibiotic/antimycotic. Calcium mineralization was measured by Alizarin Red S (SIGMA) staining to reveal mineralizing osteoblasts (see FIG. 26, panel C (undifferentiated MSCs) and panel D (osteoblast differentiated MSCs)).
# [10] = test system: MSCs captured from bone marrow; assay: Chondrocyte differentiation of captured MSCs (aggrecan immunostaining); type: cell-based; settings: 24 days CHONDRODIFF medium
# Procedure: To examine chondrocyte differentiation, the MSCs present in the […] column eluants (see Example 6) were pelleted by centrifugation at 150×g for 5 minutes. Cells were washed once with 1 ml MACS NH CHONDRODIFF Medium without disturbing the pellet. Cells were spun again and 1 mL CHONDRODIFF Medium was added to each pellet. Every third day, medium was aspirated and replaced with fresh pre-warmed medium. After 24 days in culture, cells exposed to CHONDRODIFF medium formed cartilage plugs or nodules, whereas control cells formed only loose or small nodules. Cells were washed once with PBS and fixed in neutral buffered formalin overnight. Sections were embedded in paraffin and sectioned at 5 microns. Sections were examined by hemotoxylin and eosin staining (data not shown). Sections were further examined by immunostaining for aggrecan, a major structural component of cartilage. In FIG. 27, sections from the periphery (panels A and B) or center (panels C and D) were incubated with an antibody against aggrecan (ABCAM) (panels B and D) or with secondary detection reagents only as a control (panels A and C), then counterstained with DAPI to reveal cell nuclei. […] Control images of captured cells grown in the absence of differentiation medium could not be taken due to the small and loose nature of nodules.
sequence,measurement,setting,value
"SSFWDVCQGDGTCYGGGSR (not fully specified; cysteine pairing not given here) [SEQ ID NO: 4, tested biotinylated (C-terminal GSSGK(biotin)) or attached to substrates via spacer and lysine]",binding to human ASCs,[1],high binding
same,binding to human MSCs (percent positivity relative to Neutravidin-PE alone),human MSCs [2],high binding
same,binding to dermal fibroblasts,dermal fibroblasts,high binding
same,cross-reactivity with ECFCs,[3],cross-reacted strongly
same,cross-reactivity with peripheral blood cells,peripheral blood cells,no cross-reactivity
same,cross-reactivity with HUVECs,[4],cross-reacted strongly
same,cross-reactivity with UASMCs,[5],weakly
same,HUVECs isolated compared to UASMCs,HUVECs or UASMCs,8 fold
same,capture of MSCs,human MSCs [6],approximately 70%
same,MSC capture from bone marrow aspirate (CFUs after 14 days),[7]; compared with CD105 and MSCA-1 antibody beads,as efficient as capture by either of the CD105 or MSCA-1 antibodies
same,"immunoreactivity of captured cells (CD29, CD44, CD73, CD105, CD166, CD90, CD45, CD34)",[7]; compared with CD105 isolated cells,no changes were observed
same,endothelial cell phenotype and anti-thrombogenic protein secretion,HUVECs,maintained their endothelial cell phenotype and their ability to secrete anti-thrombogenic proteins
same,adipogenesis of captured MSCs,[8],adipogenesis pathway remains intact
same,osteogenic differentiation of captured MSCs,[9],osteogenic pathway remains intact
same,aggrecan in nodules formed from captured MSCs,[10],aggrecan could be detected
